We go through one compound from ChEMBL document CHEMBL4619786, “Discovery of Novel Resorcinol Dibenzyl Ethers Targeting the Programmed Cell Death-1/Programmed Cell Death-Ligand 1 Interaction as Potential Anticancer Agents” (J Med Chem, 2020).

In data set [1] the target is Programmed cell death protein 1/Programmed cell death 1 ligand 1 (Homo sapiens) (UniProt Q15116+Q9NZQ7). As to the kind of experiment: (§1) Inhibition of human PD1/PDL1 protein-protein interaction in human PBMC-derived CD3-positive T cells co-cultured with human Hep3B cells expressing human PDL1/OS-8 assessed as increase in IFNgamma secretion measured after 72 hrs by ELISA. On the technique in general: An ELISA detects its analyte on a solid surface through an enzyme-linked reagent.

Data set [2] has as its target Programmed cell death protein 1/Programmed cell death 1 ligand 1 (Homo sapiens, UniProt Q9NZQ7). The data set is described as §1.
Data set [3] in a line: Tmax in Sprague-Dawley rat at 1 mg/kg, iv by LC-MS/MS analysis. Format: ADME, organism-based. Conditions: in vivo.
Data set [4] in a line: Tmax in Sprague-Dawley rat at 10 mg/kg, po by LC-MS/MS analysis. Format: ADME, organism-based. Conditions: in vivo.
Data set [5] in a line: Toxicity in Sprague-Dawley rat at 1 mg/kg, iv. It is filed as organism-based. Conditions: in vivo.
Data set [6] relates to MCF7. In words: Cytotoxicity against human MCF7 cells assessed as reduction in cell viability measured after 48 hrs by MTT assay. Conditions: MCF7, 48 h. Format: functional, cell-based.
The subject of data set [7] is B16-F10. As to the kind of experiment: Cytotoxicity against mouse B16/F10 cells assessed as reduction in cell viability measured after 48 hrs by MTT assay. It is filed as functional, cell-based. Particulars: B16-F10, 48 h. Background: Formazan colour is commonly taken as a measure of viable cells.
The test system of data set [8] is B16-F10. As to the kind of experiment: Antitumor activity against mouse B16/F10 cells implanted in BALB/c mouse assessed as tumor weight at 50 mg/kg, ig administered once daily via gavage for 15 days measured 24 hrs post-last dose (reference value: 0.84 +/- 0.32 g). It is filed as functional.
The nature of data set [9]: Toxicity in mouse B16/F10 cells implanted […] mouse assessed as histological changes in liver at 25 to 100 mg/kg, ig administered once daily via gavage for 15 days measured 24 hrs post-last dose by H and E staining based microscopic analysis. It is filed as organism-based. Conditions: in vivo, po.
Data set [10] relates to Mus musculus. In words: Immunostimulatory activity in mouse B16/F10 cells implanted […] mouse assessed as increase in activation of tumor-microenvironment mediated helper T cells in tumor by measuring CD4-positive cell population at 100 mg/kg, ig administered once daily via gavage for 15 days measured 24 hrs post-last dose by immunostaining based flow cytometry (reference value: 4.95%). Format: functional. (In general: In flow cytometry, cells or beads pass a laser one at a time.)

The test system of data set [11] is Mus musculus. As to the kind of experiment: Immunostimulatory activity in mouse B16/F10 cells implanted BALB/c mouse assessed as increase in activation of tumor-microenvironment mediated helper T cells in tumor by measuring CD3-positive cell population at 50 mg/kg, ig administered once daily via gavage for 15 days measured 24 hrs post-last dose by immunostaining based flow cytometry (reference value: 18.9%). Format: functional.

For data set [12], the system named is Mus musculus. In words: Effect on activated cytotoxic T cell population in mouse B16/F10 cells implanted […] mouse assessed as spleen cell population at 100 mg/kg, ig administered once daily via gavage for 15 days measured 24 hrs post-last dose by immunostaining based flow cytometry (reference value: 57.9 %). Format: organism-based. Conditions: in vivo, po.

Data set [13] deals with Mus musculus. In words: Effect on spleen helper T cell population in mouse B16/F10 cells implanted […] mouse assessed as CD3-positive/CD4-positive cell population at 50 mg/kg, ig administered once daily via gavage for 15 days measured 24 hrs post-last dose by immunostaining based flow cytometry (reference value: 27.7%). Particulars: in vivo, po. It is filed as ADME, organism-based.

Structures are written as SMILES. Where only a bound is given, the exact number is not on record here.

Sequence of Programmed cell death protein 1/Programmed cell death 1 ligand 1 (Q15116 whole entry): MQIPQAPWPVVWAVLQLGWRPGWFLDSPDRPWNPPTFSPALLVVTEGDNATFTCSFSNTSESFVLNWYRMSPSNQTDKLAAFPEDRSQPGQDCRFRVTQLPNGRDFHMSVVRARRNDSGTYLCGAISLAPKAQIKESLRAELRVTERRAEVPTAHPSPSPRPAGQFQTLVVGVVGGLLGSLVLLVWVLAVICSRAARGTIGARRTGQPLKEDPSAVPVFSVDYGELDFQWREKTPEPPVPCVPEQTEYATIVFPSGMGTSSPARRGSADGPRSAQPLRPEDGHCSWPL
Sequence of Programmed cell death protein 1/Programmed cell death 1 ligand 1 (Q9NZQ7 whole entry): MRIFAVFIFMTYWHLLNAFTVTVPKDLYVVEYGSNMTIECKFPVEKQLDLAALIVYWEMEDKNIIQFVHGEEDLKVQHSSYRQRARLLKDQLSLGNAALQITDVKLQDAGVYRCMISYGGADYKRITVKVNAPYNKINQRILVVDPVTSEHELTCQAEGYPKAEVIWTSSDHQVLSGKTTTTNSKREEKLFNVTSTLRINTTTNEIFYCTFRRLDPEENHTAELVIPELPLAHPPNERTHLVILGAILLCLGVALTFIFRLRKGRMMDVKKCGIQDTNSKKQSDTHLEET

Consider `Cc1c(COc2cc(OCc3cccc(C#N)c3)c(CNC(C)(C)C(=O)O)cc2Cl)cccc1-c1ccccc1`, for which the inhibition entry in data set [1] was “Dose-dependent effect”. Also, in data set [2], the EC50 was 3 µM. In addition, the Tmax in [3] was 4.98 min; in data set [4], 36 min. In addition, the Activity entry in data set [5] was “Non-Toxic”; in [8] it was 0.21 g; in [9], “Non-Toxic”; in data set [10], 1.3%; in data set [11] it was 17.7%; in data set [12], 62.6%. In data set [13], the Activity was 28.2%. Besides, the IC50 in data set [6] and in data set [7] was greater than 10 µM each time.

The term EC50 denotes the concentration giving half of the maximal effect. As usually defined, the Tmax is the time at which the peak concentration occurs. For orientation: IC50 means the point on the concentration scale where inhibition reaches its midpoint.
